The record followed here is article PMC8151276, “An Integrated Approach toward NanoBRET Tracers for Analysis of GPCR Ligand Engagement” (Molecules, 2021).

What all share (format): binding
In one experiment the target is T1, HCRTR1 (Homo sapiens, UniProt O43613).
T1 construct: purchased Promega (in-house HiBiT-GPCR construct library, NanoBRET)
T1 sequence (O43613 1-425): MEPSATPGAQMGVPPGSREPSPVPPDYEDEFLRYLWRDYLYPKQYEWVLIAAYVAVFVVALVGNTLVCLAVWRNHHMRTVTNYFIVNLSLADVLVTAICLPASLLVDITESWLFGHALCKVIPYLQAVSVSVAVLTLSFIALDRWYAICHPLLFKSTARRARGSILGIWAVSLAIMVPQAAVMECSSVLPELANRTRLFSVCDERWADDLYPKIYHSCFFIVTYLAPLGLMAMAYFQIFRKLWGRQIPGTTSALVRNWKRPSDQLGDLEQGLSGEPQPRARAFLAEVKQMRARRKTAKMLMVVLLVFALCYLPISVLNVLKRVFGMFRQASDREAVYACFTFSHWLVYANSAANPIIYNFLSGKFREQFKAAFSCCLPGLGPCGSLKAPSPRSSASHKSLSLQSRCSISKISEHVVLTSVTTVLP
The experiment can be described thus: NanoBRET screen HiBiT-HCRTR1 in HEK293. As to the method:
(§1) Each tracer candidate was screened across the entire library of HiBiT-GPCR constructs using NanoBRET as the detection modality. As depicted in Figure 4A, the specificity of interactions was evaluated through decrease in BRET due to competitive displacement of a bound tracer by excess parental compound. Each tracer was analyzed for binding to each HiBiT-GPCR fusion in the absence and in the presence of competing parental compound. Briefly, HEK293 cells were transfected with HiBiT-GPCR constructs diluted into promoterless DNA to reduce expression and maximize translocation to the cell surface. Each tracer candidate was then screened at concentrations of 1 μM and 0.1 μM across cells expressing these fusions. Cells were treated for 1.5 h with tracer either alone or in the presence of 20 μM competing parental compound (i.e., control). BRET was measured upon addition of purified LgBiT and subsequent complementation with HiBiT genetically fused to a GPCR. The specificity of interactions was assessed through a decrease in BRET signal due to competitive displacement of the bound tracer. To further gauge the robustness of these interactions, the fold response over the control (i.e., BRETtracer/BRETcontrol) was calculated. We chose a 1.5-fold response, which translates to ≥7-fold signal over noise as the minimal threshold required to score an interaction as positive. […]. Below we highlight the screening results obtained for our exemplary fluorescent tracers based on Clozapine, Amitriptyline and AZD1283.
(§2) HiBiT-GPCR DNA constructs were diluted in 10 mM Tris pH 8 to a final concentration of 0.01 μg/μL, arrayed in 96-well plates and stored at −20 °C. For transfection, HEK293 cells were suspended in Opti-MEM (without phenol red) supplemented with 2% fetal bovine serum (Seradigm) and 100 units/mL penicillin–streptomycin (Gibco) at a final concentration of 220,000 cells/mL and dispensed into white 96-well plates at 90 μL/well. Subsequent transfections and screens were carried using an Agilent Bravo Automated Liquid Handling Platform. First, the 96-well HiBiT DNA arrays were diluted 25-fold in Opti-MEM (without serum or phenol red) to a final concentration of 0.0004 μg/μL and 20 μL of the diluted DNAs were transferred into new 96-well plates. Next, promoterless carrier DNA (1 μg/μL) was diluted 25-fold (0.04 μg/μL) and then dispensed into the diluted arrays at 20 μL/well. Following brief mixing, Viafect transfection reagent (Promega) diluted 16-fold into Opti-MEM was dispensed into the plates at 40 μL/well. After mixing by pipetting, plates were incubated for 10 min on the pipetting station deck. The DNA-transfection reagent complexes were then added to plates containing cells. To facilitate the screen, 10 μL of DNA-transfection reagent complexes were added in duplicates to the top 4 and bottom 4 rows, resulting in two identical 48-well arrays per plate. Plates with transfected cells were incubated for 18–20 h at 37 °C/5% CO2. A screen of each tracer across the entire library using two different concentrations requires duplicate plates of transfected cells. Depending on the number of tracers being screened, transfections can be scaled up using the same ratios. The next day, for each tracer, four 20× screening solutions in tracer dilution buffer (Promega) were prepared: two duplicates at final concentration of 20 μM and two duplicates at a final concentration of 2 μM. A competing unmodified compound was added to one of each duplicate at a final concentration of 400 μM. The four resulting solutions were diluted 4-fold in Opti-MEM without serum or phenol red to generate 5× solutions (5 µM and 0.5 µM tracer +/− 100 μM competing compound). To screen the library, a BioTek MultiFlo FX liquid dispenser was used to dispense 22.5 µL of tracer solution to the top 4 rows and 22.5 µL tracer + competing compound solution to the 4 bottom rows. Plates were briefly mixed on an orbital shaker and incubated for 1.5 h at room temperature. […]

In another experiment the target is T2, HRH4 (Homo sapiens, UniProt Q9H3N8).
T2 construct: purchased Promega (in-house HiBiT-GPCR construct library, NanoBRET)
The experiment can be described thus: NanoBRET screen HiBiT-HRH4 in HEK293. As to the method: as §1, §2
(In general: BRET reads energy transfer from a luciferase to a nearby fluorophore.)

In the next experiment the target is T3, P2RY12 (Homo sapiens, UniProt Q9H244).
T3 construct: purchased Promega (in-house HiBiT-GPCR construct library, NanoBRET)
The experiment can be described thus: NanoBRET screen HiBiT-P2RY12 in HEK293. As to the method:
as §1, §2

In the next experiment the target is T4, GRM2 (Homo sapiens, UniProt Q14416).
T4 construct: purchased Promega (in-house HiBiT-GPCR construct library, NanoBRET)
The experiment can be described thus: NanoBRET screen HiBiT-GRM2 in HEK293. The following applies: GRM2. As to the method:
as §1, §2

For another experiment, the target named is T5, CX3CR1 (Homo sapiens, UniProt P49238).
T5 construct: purchased Promega (in-house HiBiT-GPCR construct library, NanoBRET)
T5 sequence (P49238 1-355): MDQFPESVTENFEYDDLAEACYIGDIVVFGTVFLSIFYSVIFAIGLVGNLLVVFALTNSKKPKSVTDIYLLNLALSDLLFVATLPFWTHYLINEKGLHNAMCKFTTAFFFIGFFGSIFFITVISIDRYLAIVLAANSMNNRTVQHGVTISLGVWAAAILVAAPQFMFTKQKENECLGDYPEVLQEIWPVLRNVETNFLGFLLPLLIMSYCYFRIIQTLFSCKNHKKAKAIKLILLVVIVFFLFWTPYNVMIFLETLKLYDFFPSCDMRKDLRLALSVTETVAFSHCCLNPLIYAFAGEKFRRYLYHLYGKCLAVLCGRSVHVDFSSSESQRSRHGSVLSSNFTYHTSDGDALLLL
The experiment can be described thus: NanoBRET screen HiBiT-CX3CR1 in HEK293. As to the method: as §1, §2

A further experiment has as its target T6, P2RY1 (Homo sapiens, UniProt P47900).
T6 construct: purchased Promega (in-house HiBiT-GPCR construct library, NanoBRET)
The experiment can be described thus: NanoBRET screen HiBiT-P2RY1 in HEK293. As to the method:
as §1, §2

Setting [1] is: tracer at 0.1μM, listed as amitriptyline-b-2-NB590.
[2] abbreviates: tracer at 1μM, listed as amitriptyline-b-2-NB590.

T3 sequence (Q9H244 whole entry, one chain of several): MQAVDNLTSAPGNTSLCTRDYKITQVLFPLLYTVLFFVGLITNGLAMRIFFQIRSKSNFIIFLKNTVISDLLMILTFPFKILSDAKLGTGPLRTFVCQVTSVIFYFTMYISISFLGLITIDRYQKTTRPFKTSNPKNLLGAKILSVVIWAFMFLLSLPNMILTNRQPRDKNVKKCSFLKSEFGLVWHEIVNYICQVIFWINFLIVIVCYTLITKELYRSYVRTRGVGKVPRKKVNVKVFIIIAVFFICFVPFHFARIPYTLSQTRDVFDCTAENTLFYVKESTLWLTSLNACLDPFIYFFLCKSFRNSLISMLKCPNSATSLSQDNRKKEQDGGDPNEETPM
T6 sequence (P47900 whole entry): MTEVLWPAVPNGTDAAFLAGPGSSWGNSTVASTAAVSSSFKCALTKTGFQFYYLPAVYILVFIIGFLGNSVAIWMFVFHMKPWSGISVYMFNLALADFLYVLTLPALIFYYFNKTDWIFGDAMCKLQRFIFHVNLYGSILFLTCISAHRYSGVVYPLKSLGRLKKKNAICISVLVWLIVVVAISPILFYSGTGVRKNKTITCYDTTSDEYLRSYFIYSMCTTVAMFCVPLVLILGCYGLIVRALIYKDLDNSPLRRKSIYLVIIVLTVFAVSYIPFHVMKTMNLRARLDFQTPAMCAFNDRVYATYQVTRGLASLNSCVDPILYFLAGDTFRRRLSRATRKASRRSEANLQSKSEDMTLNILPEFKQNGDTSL
T2 sequence (Q9H3N8 whole entry): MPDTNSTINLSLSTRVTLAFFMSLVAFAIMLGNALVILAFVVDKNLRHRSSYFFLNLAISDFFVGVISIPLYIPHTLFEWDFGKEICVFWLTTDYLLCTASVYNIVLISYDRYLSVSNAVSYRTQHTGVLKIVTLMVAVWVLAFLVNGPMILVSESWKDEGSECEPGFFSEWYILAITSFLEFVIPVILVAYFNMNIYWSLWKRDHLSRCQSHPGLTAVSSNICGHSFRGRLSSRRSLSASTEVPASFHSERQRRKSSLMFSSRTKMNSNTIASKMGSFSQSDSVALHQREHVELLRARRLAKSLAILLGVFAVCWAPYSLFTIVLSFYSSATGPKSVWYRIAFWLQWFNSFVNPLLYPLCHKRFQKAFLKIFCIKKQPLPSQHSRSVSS
T4 sequence (Q14416 19-872): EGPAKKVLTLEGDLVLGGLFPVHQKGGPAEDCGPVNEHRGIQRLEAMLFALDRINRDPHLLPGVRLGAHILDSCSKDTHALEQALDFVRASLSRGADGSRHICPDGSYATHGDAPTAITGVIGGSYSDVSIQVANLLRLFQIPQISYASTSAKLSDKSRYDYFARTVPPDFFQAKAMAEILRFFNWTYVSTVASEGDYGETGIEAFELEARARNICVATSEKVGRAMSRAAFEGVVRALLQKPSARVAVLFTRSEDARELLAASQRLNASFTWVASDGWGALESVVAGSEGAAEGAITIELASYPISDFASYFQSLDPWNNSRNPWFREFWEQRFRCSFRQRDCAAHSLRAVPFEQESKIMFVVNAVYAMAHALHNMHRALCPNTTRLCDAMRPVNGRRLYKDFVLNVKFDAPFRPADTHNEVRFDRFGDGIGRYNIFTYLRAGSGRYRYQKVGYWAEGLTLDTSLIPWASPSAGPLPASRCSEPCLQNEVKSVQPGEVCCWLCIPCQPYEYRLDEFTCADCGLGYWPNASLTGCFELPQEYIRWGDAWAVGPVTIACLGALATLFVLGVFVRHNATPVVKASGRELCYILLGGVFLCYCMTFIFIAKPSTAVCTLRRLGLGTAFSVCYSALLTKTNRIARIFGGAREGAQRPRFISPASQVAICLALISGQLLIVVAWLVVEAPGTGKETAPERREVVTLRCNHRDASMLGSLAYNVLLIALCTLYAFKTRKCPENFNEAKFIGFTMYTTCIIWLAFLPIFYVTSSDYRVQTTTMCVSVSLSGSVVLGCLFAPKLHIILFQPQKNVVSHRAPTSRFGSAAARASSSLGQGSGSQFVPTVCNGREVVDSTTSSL

As for `CC(C)N(CC[C@H](c1ccccc1)c1cc(CCNC(=O)c2ccc(CNC(=O)CCc3ccc4n3[B-](F)(F)[N+]3=C(c5ccc[nH]5)C=CC3=C4)cc2)ccc1O)C(C)C` [Tolterodine-BZ-NB590], the “NanoBRET Fold Response” value on HCRTR1 (HCRTR1, tracer 0.1μM) was found to be 0.86; at HCRTR1 (HCRTR1, tracer 1μM), 1.07; at HRH4 (HRH4, tracer 0.1μM) it was 0.82; on HRH4 (HRH4, tracer 1μM), 0.88; on P2RY12 (P2RY12, tracer 0.1μM), 1.08; on P2RY12 (P2RY12, tracer 1μM), 0.91. Besides, the “NanoBRET Fold Response” value was 1.00 at GRM2 (tracer 0.1μM); 0.15 on GRM2 (tracer 1μM); 0.94 at CX3CR1 (CX3CR1, tracer 0.1μM); 0.98 at CX3CR1 (CX3CR1, tracer 1μM); 1.43 at P2RY1 (P2RY1, tracer 0.1μM); 1.03 on P2RY1 (P2RY1, tracer 1μM).

For `O=C(CCc1ccc2n1[B-](F)(F)[N+]1=C(c3ccc[nH]3)C=CC1=C2)NCCOCCOCCNC(=O)OCCOCCN1CCN(C2=Nc3ccccc3Sc3ccccc32)CC1` [Quetiapine-a-2-NB590], the “NanoBRET Fold Response” value on HCRTR1 (HCRTR1, tracer 0.1μM) is 0.98; on HCRTR1 (HCRTR1, tracer 1μM), 0.77; on HRH4 (HRH4, tracer 0.1μM), 1.01; at HRH4 (HRH4, tracer 1μM), 0.96; on P2RY12 (P2RY12, tracer 0.1μM), 0.99; on P2RY12 (P2RY12, tracer 1μM) it was 0.92. The “NanoBRET Fold Response” value was found to be 0.92 at GRM2 (tracer 0.1μM); 1.06 at GRM2 (tracer 1μM); 0.90 at CX3CR1 (CX3CR1, tracer 0.1μM); 0.95 on CX3CR1 (CX3CR1, tracer 1μM); 1.00 at P2RY1 (P2RY1, tracer 0.1μM); 1.01 on P2RY1 (P2RY1, tracer 1μM).

In the case of `Cc1cc2c(s1)Nc1ccccc1N=C2N1CCN(CCCNC(=O)CCOCCOCCOCCOCCNC(=O)CCc2ccc3n2[B-](F)(F)[N+]2=C(c4ccc[nH]4)C=CC2=C3)CC1` [Olanzapine-a-2-NB590], the “NanoBRET Fold Response” value at HCRTR1 (HCRTR1, tracer 0.1μM) stood at 0.98; on HCRTR1 (HCRTR1, tracer 1μM), 0.99; at HRH4 (HRH4, tracer 0.1μM), 1.01; on HRH4 (HRH4, tracer 1μM), 0.94; at P2RY12 (P2RY12, tracer 0.1μM) it was 0.98; at P2RY12 (P2RY12, tracer 1μM) it was 0.97. For the same compound, the “NanoBRET Fold Response” value is 1.00 at GRM2 (tracer 0.1μM); 1.01 on GRM2 (tracer 1μM); 1.03 at CX3CR1 (CX3CR1, tracer 0.1μM); 0.97 on CX3CR1 (CX3CR1, tracer 1μM); 0.97 on P2RY1 (P2RY1, tracer 0.1μM); 0.95 at P2RY1 (P2RY1, tracer 1μM).

With `CN(C)CCC=C1c2ccccc2CCc2ccc(C(=O)NCCNC(=O)CCOCCOCCOCCOCCNC(=O)CCc3ccc4n3[B-](F)(F)[N+]3=C(c5ccc[nH]5)C=CC3=C4)cc21` [Amitriptyline-b-2-NB590], the “NanoBRET Fold Response” value on HCRTR1 (setting [1]) was 1.08; on HCRTR1 (setting [2]), 0.91; on HRH4 (setting [1]) it was 0.97; at HRH4 (setting [2]) it was 1.13; on P2RY12 (setting [1]) it was 0.96; at GRM2 (tracer 0.1μM) it was 0.97. Further, the “NanoBRET Fold Response” value on GRM2 (tracer 1μM) worked out at 0.98; at CX3CR1 (setting [1]) it was 1.14; on CX3CR1 (setting [2]), 0.86; on P2RY1 (setting [1]), 1.13.

As to `O=C(CCOCCOCCOCCOCCNC(=O)CCc1ccc2n1[B-](F)(F)[N+]1=C(c3ccc[nH]3)C=CC1=C2)NCCCN1CCN(C2=Nc3cc(Cl)ccc3Nc3ccccc32)CC1` [Clozapine-a-2-NB590], the “NanoBRET Fold Response” value at HCRTR1 (HCRTR1, 0.1μM tracer) is 0.89; on HCRTR1 (HCRTR1, 1μM tracer), 0.98; on HRH4 (HRH4, 0.1μM tracer) it was 1.00; at HRH4 (HRH4, 1μM tracer), 1.07; at P2RY12 (P2RY12, 0.1μM tracer), 1.00; at P2RY12 (P2RY12, 1μM tracer), 0.94. The “NanoBRET Fold Response” value stood at 1.03 at GRM2 (0.1μM tracer); 1.01 at GRM2 (1μM tracer); 1.08 at CX3CR1 (CX3CR1, 0.1μM tracer); 1.07 on CX3CR1 (CX3CR1, 1μM tracer); 1.01 on P2RY1 (P2RY1, 0.1μM tracer); 0.94 on P2RY1 (P2RY1, 1μM tracer).

Regarding `CN1CCN(C2=Nc3cc(Cl)ccc3Nc3ccc(CNC(=O)CCOCCOCCOCCOCCNC(=O)CCc4ccc5n4[B-](F)(F)[N+]4=C(c6ccc[nH]6)C=CC4=C5)cc32)CC1` [Clozapine-b-2-NB590], the “NanoBRET Fold Response” value was 1.04 on HCRTR1 (HCRTR1, 0.1μM tracer); 1.01 at HCRTR1 (HCRTR1, 1μM tracer); 1.01 on HRH4 (HRH4, 0.1μM tracer); 0.81 on HRH4 (HRH4, 1μM tracer); 1.00 at P2RY12 (P2RY12, 0.1μM tracer); 0.97 on P2RY12 (P2RY12, 1μM tracer). Also, the “NanoBRET Fold Response” value on GRM2 (0.1μM tracer) is recorded as 1.01; at GRM2 (1μM tracer), 1.04; at CX3CR1 (CX3CR1, 0.1μM tracer) it was 0.98; on P2RY1 (P2RY1, 0.1μM tracer), 1.03; on P2RY1 (P2RY1, 1μM tracer) it was 1.01.

As for `Cc1nc2n(c(=O)c1CCN1CCC(c3noc4cc(F)ccc34)CC1)CCCC2OC(=O)NCCOCCOCCOCCOCCNC(=O)CCc1ccc2n1[B-](F)(F)[N+]1=C(c3ccc[nH]3)C=CC1=C2` (stereo not drawn) [Risperidone-2-NB590], the “NanoBRET Fold Response” value is reported as 1.01 on HCRTR1 (HCRTR1, tracer 0.1μM); 1.05 at HCRTR1 (HCRTR1, tracer 1μM); 1.03 at HRH4 (HRH4, tracer 0.1μM); 1.07 on HRH4 (HRH4, tracer 1μM); 1.05 at P2RY12 (P2RY12, tracer 0.1μM); 0.95 on P2RY12 (P2RY12, tracer 1μM). Further, the “NanoBRET Fold Response” value on GRM2 (tracer 0.1μM) was found to be 0.96; at GRM2 (tracer 1μM), 1.04; on CX3CR1 (CX3CR1, tracer 0.1μM) it was 1.06; at CX3CR1 (CX3CR1, tracer 1μM), 1.02; at P2RY1 (P2RY1, tracer 0.1μM) it was 0.98; on P2RY1 (P2RY1, tracer 1μM) it was 0.97.
